Laboratory results: patent publication EP1599197B1, “THE USE OF ANTIMUSCARINIC DRUGS” (FAPESP-Fundacao de Amparo a Pesquisa do Estado de SP, priority 2003, dated 2004)

Legend:
[1] = system: Wistar, adult, male, rats; assay: induction of status epilepticus by systemic pilocarpine; format: in vivo; details: pilocarpine 320 mg/Kg intraperitoneal, average
Source text: (§1) Biperiden, together with atropine, is a classic cholinergic antagonist and is known to block muscarinic receptors. These drugs are known by their abilities in blocking the cholinergic transmission which is otherwise mediated through muscarinic receptors. For our experiments we used Wistar, adult, male, rats which were maintained under controled conditions of temperature, light/dark cylces and kept in groups of up to 6 animals in polypropilene boxes with free access to tap water and rat chow pellets. Rats were subject to the intraperitoneal administration of pilocarpine in a dose of 320 mg/Kg for the induction of status epilepticus.
As expected, the systemic administration of pilocarpine lead to a sequence of behavioral alterations such as akinesia, body tremor and/or myoclonic jerks of the head and oro-facial stereotyped movements accompained by profuse salivation. Status epilepticus, a condition of uninterrupt epileptic seizure, developed on average 19 ± 5 min after the injetion of pilocarpine. Three hours after the onset of status epilepticus the animals in the experimental group (n=10) were intraperitoneally injected with the first initial dose of biperiden (8 mg/kg). […]

[2] = system: Wistar, adult, male, rats; assay: pilocarpine model of epilepsy: video monitoring of spontaneous epileptic seizures after status epilepticus; format: in vivo
Source text: The current invention was based on an experimental model of epilepsy in which in rats the induction of a brain lesion is accomplished through the administration of pilocarpine, a cholinergic agonist. According to the original description of this model, approximately 20-30 days after pilocarpine injection in either rats or mice, there is the onset of spontaneous recurrent epileptic seizures (Turski WA, Cavalheiro EA, Schwarz M, Czuczwar SJ, Kleinrok Z and Turski L. Limbic seizures produced by pilocarpine in rats: behavioural, electroencephalographic and neuropathological study. Behavioral Brain Research, 9:315-335, 1983; Mello LEAM, Cavalheiro EA, Babb TL, Kupfer WR, Pretorius JK, Tan AM and Finch. DM. Circuit mechanisms of seizures in the pilocarpine model of chronic epilepsy: cell loss and mossy fiber sprouting. Epilepsia 34:985-995, 1993). Due to its special features the pilocarpine model is currently one of the 3 most widely used experimental models in the study of epilepsy.
as §1
As expected, the systemic administration of pilocarpine lead to a sequence of behavioral alterations such as akinesia, body tremor and/or myoclonic jerks of the head and oro-facial stereotyped movements accompained by profuse salivation. Status epilepticus, a condition of uninterrupt epileptic seizure, developed on average 19 ± 5 min after the injetion of pilocarpine. Three hours after the onset of status epilepticus the animals in the experimental group (n=10) were intraperitoneally injected with the first initial dose of biperiden (8 mg/kg). This dose represents the concentration needed to provoke memory impairments in rodents (Roldan G, Bolanos-Badillo E, Gonzales-Sanches H, Quirarte GL and Prado-Alcala RA JW. Selective M1 muscarinic receptor antagonists disrupt memory consolidation of inhibitory avoidance in rats. Neurosci. Lett., 230:93-6, 1997).
For the animals in the control group (n=6), […] after the onset of status epileticus, administration of sterile saline solution (0.9% NaCl), rather than biperiden, was started with a similar protocol.
In the pilocarpine model of epilepsy, a few weeks after the administration of pilocarpine and the induction of status epilepticus, the animals develop spontaneous epileptic seizures which reccur for as long as the animal are allowed to live. […]
Approximately 15 to 20 days after the induction of status epilepticus, the reported duration of the latent period for the onset of spontaneous seizures, monitoring of the behavioral seizures with a videocamera for approximately 12 hours/week was initiated. […] Animals were video monitored for approximately 120 days after the induction of status epilepticus. The recorded video tapes were routinelly assessed in a 29 inches wide television screen and the seizures observed for each animal were recorded.

Row | Structure (SMILES) | time to development of status epilepticus after the injection of pilocarpine [1] [min] | qualitative or quantitative nature of each individual seizure, biperiden-treated vs control group ([2]; comparison between the two groups) | onset of spontaneous recurrent seizures after prophylactic use following pilocarpine lesion ([2]; prophylactic use after pilocarpine lesion, vs animals not treated with biperiden) | mean frequency of spontaneous epileptic seizures, control group relative to experimental group (treated with biperiden) ([2]; ratio control / biperiden-treated group, Table 2) [times higher] | Spontaneous seizures/h ([2]; rats, pilocarpine 320 mg/Kg i.p., biperiden 8 mg/kg i.p. every 8 hours for 10 days, n=10, video monitored about 120 days, mean ± standard deviation, p < 0.02 vs control (0.0401 ± 0.0113)) [seizures/h] | Latency (weeks): length of the latent period for the onset of the first recorded spontaneous epileptic seizure ([2]; rats, pilocarpine 320 mg/Kg i.p., biperiden 8 mg/kg i.p. starting 3 h after onset of status epilepticus, every 8 hours for 10 days, n=10, mean ± standard deviation, p < 0.03 vs control (3.2 ± 1.1)) [weeks]
1 | CC[C@@H]1C(=O)OC[C@@H]1Cc1cncn1C [pilocarpine] | 19 ± 5 | – | – | – | – | –
2 | OC(CCN1CCCCC1)(c1ccccc1)C1CC2C=CC1C2 (stereo not drawn) [biperiden] | – | no differences | significantly retarded or even supressed the onset of spontaneous recurrent seizures | 2 | 0.0202 ± 0.0047 | 6.0 ± 1.1
